PMC11121495, “Blap-6, a Novel Antifungal Peptide from the Chinese Medicinal Beetle Blaps rhynchopetera against Cryptococcus neoformans” (International Journal of Molecular Sciences, 2024)
Values after ≈ are worked out from the molar mass of the structure shown. Read-outs that look alike come from different tables or passages of the source. Where no end group is shown, it is not given here.

Columns and labels:
[1] = tested on: C. albicans; test: microbe, parasite or virus in culture; assay type: cell-based, Candida albicans (ATCC 10231)
Text: (§1) These standard strains of Escherichia coli (E. coli, ATCC 8739), Staphylococcus aureus (S. aureus, ATCC 6538), Pseudomonas aeruginosa (P. aeruginosa, ATCC 27853), Acinetobacter baumannii (A. baumannii, ATCC 1968), Candida albicans (ATCC 10231), and the clinical strain of Methicillin-resistant Staphylococcus aureus (MRSA, MRSA-Z) were obtained from Kunming Medical University. The standard strain of C. neoformans (ATCC 32045) was purchased from Shanghai Yingxin Laboratory Co., Ltd. (CAS NO. YXJ50058). Different strains of E. coli, S. aureus, MRSA, P. aeruginosa, and A. baumannii were cultured with shaking at 37 °C in Luria–Bertani (LB) medium. C. neoformans was cultured at 35 °C in Sabouraud Dextrose Agar (SDA) medium according to the manufacturer’s instructions.
(§2) According to Clinical and Laboratory Standards Institute (CLSI) protocols, the minimum inhibitory concentration (MIC) is the minimum drug concentration at which antibiotics inhibit the growth and reproduction of strains. The different strains were grown in their corresponding media at 35 °C or 37 °C until they entered the exponential growth phase. Fluconazole and amphotericin B were used as positive controls, and sterile 0.9% NaCl was used as a negative control. The peptides were diluted to various concentrations in sterile saline. According to 1 OD = 1 × 10^9 CFU/mL, the above bacterial solution was diluted to 2 × 10^5 CFU/mL with the corresponding medium. In advance, 100 μL of normal saline was added to a sterile 96-well plate, and 200 μL of the sample to be tested was added to the first well. The sample to be tested was subjected to double gradient dilution, and then 100 μL of bacterial solution with a concentration of 2 × 10^5 was added to each well. It was cultured at 35 °C or 37 °C for different times. The light absorption value of the bacterial solution at 600 nm was detected by a microplate reader (Epoch Etock, Biotek, Winooski, VT, USA), and the average concentration of the samples in the pores and adjacent pores that could not detect microbial growth was used as the MIC value.

[2] = tested on: C. neoformans; test: microbe, parasite or virus in culture; assay type: cell-based, Cryptococcus neoformans (ATCC 32045)
Text: as §1, §2

[3] = tested on: P. aeruginosa; test: microbe, parasite or virus in culture; assay type: cell-based, Pseudomonas aeruginosa (ATCC 27853)
Text: as §1, §2

[4] = tested on: MRSA; test: microbe, parasite or virus in culture; assay type: cell-based
Text: as §1, §2

[5] = tested on: A. baumannii; test: microbe, parasite or virus in culture; assay type: cell-based, Acinetobacter baumannii (ATCC 1968)
Text: as §1, §2

[6] = tested on: S. aureus; test: microbe, parasite or virus in culture; assay type: cell-based, Staphylococcus aureus (ATCC 6538)
Text: as §1, §2

[7] = tested on: E. coli; test: microbe, parasite or virus in culture; assay type: cell-based, Escherichia coli (ATCC 8739)
Text: as §1, §2

[8] = tested on: C. neoformans ATCC 32045; test: Fungal-killing kinetics; assay type: cell-based, Cryptococcus neoformans; details: positive control; concentration not stated in the sentence (1×, 5×, 10 × MIC tested)
Procedure: The single colony of C. neoformans ATCC 32045 was selected and cultured at 180 rpm and 37 °C, washed three times with normal saline, and then resuspended, and the fungal solution was diluted to 1 × 10^6 CFU/mL with SDB medium. The positive control was fluconazole, and the negative control was normal saline. […] The fungal liquid after adding the sample was quickly put into the 37 °C constant temperature incubator, and the shaking culture was carried out at 180 rpm. […] The plate was placed in a constant temperature incubator for inverted culture for 72 h at 37 °C, and then the single colony on the plate was counted.

[9] = Candida albicans, ATCC10231, ATCC 10231, double gradient dilution, 2 × 10^5 CFU/mL, OD 600 nm, mean of three independent experiments
[10] = Cryptococcus neoformans, ATCC32045, ATCC 32045, double gradient dilution, 2 × 10^5 CFU/mL, 35 °C, OD 600 nm, mean of three independent experiments

With `C[C@@H]1[C@H](O)[C@@H](C)/C=C/C=C/C=C/C=C/C=C/C=C/C=C/[C@H](O[C@@H]2O[C@H](C)[C@@H](O)[C@H](N)[C@@H]2O)C[C@@H]2O[C@](O)(C[C@@H](O)C[C@@H](O)[C@H](O)CC[C@@H](O)C[C@@H](O)CC(=O)O[C@H]1C)C[C@H](O)[C@H]2C(=O)O` [Amphotericin B, reference compound] the MIC [1, 9] was 0.05 µM (≈ 0.0462 µg/mL) and the MIC [2, 10] was 0.05 µM (≈ 0.0462 µg/mL).
`CC1(C)S[C@@H]2[C@H](NC(=O)[C@H](N)c3ccccc3)C(=O)N2[C@H]1C(=O)O` [Ampicillin, reference compound] was tested, and the MIC ([3]; Pseudomonas aeruginosa, ATCC27853, ATCC 27853, double gradient dilution, 2 × 10^5 CFU/mL, LB, 37 °C, OD 600 nm, mean of three independent experiments) was 31.6 µM (≈ 11 µg/mL), the MIC ([4]; Staphylococcus aureus, clinical strain MRSA-Z, double gradient dilution, 2 × 10^5 CFU/mL, LB, 37 °C, OD 600 nm, mean of three independent experiments) was 126 µM (≈ 44.1 µg/mL) and the MIC ([5]; Acinetobacter baumannii, ATCC1968, ATCC 1968, double gradient dilution, 2 × 10^5 CFU/mL, LB, 37 °C, OD 600 nm, mean of three independent experiments) was 31.6 µM (≈ 11 µg/mL). For the same compound, the MIC ([6]; Staphylococcus aureus, ATCC6538, ATCC 6538, double gradient dilution, 2 × 10^5 CFU/mL, LB, 37 °C, OD 600 nm, mean of three independent experiments) was 63.1 µM (≈ 22.1 µg/mL) and the MIC ([7]; Escherichia coli, ATCC8739, ATCC 8739, double gradient dilution, 2 × 10^5 CFU/mL, LB, 37 °C, OD 600 nm, mean of three independent experiments) was 31.6 µM (≈ 11 µg/mL).
For `OC(Cn1cncn1)(Cn1cncn1)c1ccc(F)cc1F` [Fluconazole, reference compound], the MIC [1, 9] was 0.61 µM (≈ 0.187 µg/mL), the “time required for fungicidal rate to reach more than 90%” value [8] was 360 min and the MIC [2, 10] was 6.36 µM (≈ 1.95 µg/mL).
FIKKMLGNFSNYVRRPGKR [blap-9] gave an MIC [3] of 81.10 µM, an MIC [4] of 81.10 µM and an MIC [1] of 40.55 µM. The MIC [5] was 81.10 µM, the MIC [2] was 81.10 µM and the MIC [6] was 81.10 µM. For the same compound, the MIC [7] was 81.10 µM.
Compound KRALSLPKMREDRLLYRGRA [blap-7] has an MIC [1] of 156.30 µM and an MIC [2] of 312.50 µM.
Compound RWKERKKWQKRWKRKKG [blap-8] has an MIC [3] of 7.81 µM, an MIC [4] of 156.30 µM and an MIC [1] of 19.53 µM. For the same compound, the MIC [2] was 19.53 µM, the MIC [6] was 156.3 µM and the MIC [7] was 312.50 µM.
Work on RWNTSRWLRL [blap-10] yielded an MIC [3] of 312.50 µM, an MIC [4] of 19.54 µM and an MIC [1] of 156.30 µM. It also gave an MIC [2] of 312.5 µM.
